Source: ChEMBL document CHEMBL4715697, “Synthesis and biological activity of benzamide DNA minor groove binders” (2016)

Columns and labels:
Format in all cases: functional
Settings in all cases: read-out: Activity
[1] = test system: NCI-H226; assay: Growth inhibition of human NCI-H226 cells assessed as cell growth at 10 uM incubated for 48 hrs by sulforhodamine B assay relative to control
[2] = test system: HCT-15; assay: Growth inhibition of human HCT-15 cells assessed as cell growth at 10 uM incubated for 48 hrs by sulforhodamine B assay relative to control
[3] = test system: HOP-62; assay: Growth inhibition of human HOP-62 cells assessed as cell growth at 10 uM incubated for 48 hrs by sulforhodamine B assay relative to control
[4] = test system: Malme-3M; assay: Growth inhibition of human Malme-3M cells assessed as cell growth at 10 uM incubated for 48 hrs by sulforhodamine B assay relative to control
[5] = test system: SK-MEL-5; assay: Growth inhibition of human SK-MEL-5 cells assessed as cell growth at 10 uM incubated for 48 hrs by sulforhodamine B assay relative to control
[6] = test system: CCRF-CEM; assay: Growth inhibition of human CCRF-CEM cells assessed as cell growth at 10 uM incubated for 48 hrs by sulforhodamine B assay relative to control
[7] = test system: UO-31; assay: Growth inhibition of human UO-31 cells assessed as cell growth at 10 uM incubated for 48 hrs by sulforhodamine B assay relative to control
[8] = test system: NCI-H322M; assay: Growth inhibition of human NCI-H322M cells assessed as cell growth at 10 uM incubated for 48 hrs by sulforhodamine B assay relative to control
[9] = test system: NCI-H460; assay: Growth inhibition of human NCI-H460 cells assessed as cell growth at 10 uM incubated for 48 hrs by sulforhodamine B assay relative to control
[10] = test system: HCC 2998; assay: Growth inhibition of human HCC 2998 cells assessed as cell growth at 10 uM incubated for 48 hrs by sulforhodamine B assay relative to control
[11] = test system: BT-549; assay: Growth inhibition of human BT-549 cells assessed as cell growth at 10 uM incubated for 48 hrs by sulforhodamine B assay relative to control
[12] = test system: NCI-H23; assay: Growth inhibition of human NCI-H23 cells assessed as cell growth at 10 uM incubated for 48 hrs by sulforhodamine B assay relative to control
[13] = test system: TK-10; assay: Growth inhibition of human TK-10 cells assessed as cell growth at 10 uM incubated for 48 hrs by sulforhodamine B assay relative to control
[14] = test system: NCI-H522; assay: Growth inhibition of human NCI-H522 cells assessed as cell growth at 10 uM incubated for 48 hrs by sulforhodamine B assay relative to control
[15] = test system: UACC-62; assay: Growth inhibition of human UACC-62 cells assessed as cell growth at 10 uM incubated for 48 hrs by sulforhodamine B assay relative to control
[16] = test system: SF-268; assay: Growth inhibition of human SF-268 cells assessed as cell growth at 10 uM incubated for 48 hrs by sulforhodamine B assay relative to control
[17] = test system: HT-29; assay: Growth inhibition of human HT-29 cells assessed as cell growth at 10 uM incubated for 48 hrs by sulforhodamine B assay relative to control
[18] = test system: HL-60(TB); assay: Growth inhibition of human HL-60(TB) cells assessed as cell growth at 10 uM incubated for 48 hrs by sulforhodamine B assay relative to control
[19] = test system: MOLT-4; assay: Growth inhibition of human MOLT-4 cells assessed as cell growth at 10 uM incubated for 48 hrs by sulforhodamine B assay relative to control
[20] = test system: T47D; assay: Growth inhibition of human T47D cells assessed as cell growth at 10 uM incubated for 48 hrs by sulforhodamine B assay relative to control
[21] = test system: NCI/ADR-RES; assay: Growth inhibition of human NCI/ADR-RES cells assessed as cell growth at 10 uM incubated for 48 hrs by sulforhodamine B assay relative to control
[22] = test system: ACHN; assay: Growth inhibition of human ACHN cells assessed as cell growth at 10 uM incubated for 48 hrs by sulforhodamine B assay relative to control
[23] = test system: MDA-MB-435; assay: Growth inhibition of human MDA-MB-435 cells assessed as cell growth at 10 uM incubated for 48 hrs by sulforhodamine B assay relative to control
[24] = test system: SK-MEL-2; assay: Growth inhibition of human SK-MEL-2 cells assessed as cell growth at 10 uM incubated for 48 hrs by sulforhodamine B assay relative to control
[25] = test system: M14; assay: Growth inhibition of human M14 cells assessed as cell growth at 10 uM incubated for 48 hrs by sulforhodamine B assay relative to control
[26] = test system: K562; assay: Growth inhibition of human K562 cells assessed as cell growth at 10 uM incubated for 48 hrs by sulforhodamine B assay relative to control
[27] = test system: UACC-257; assay: Growth inhibition of human UACC-257 cells assessed as cell growth at 10 uM incubated for 48 hrs by sulforhodamine B assay relative to control
[28] = test system: SF-539; assay: Growth inhibition of human SF-539 cells assessed as cell growth at 10 uM incubated for 48 hrs by sulforhodamine B assay relative to control
[29] = test system: PC-3; assay: Growth inhibition of human PC-3 cells assessed as cell growth at 10 uM incubated for 48 hrs by sulforhodamine B assay relative to control
[30] = test system: SR; assay: Growth inhibition of human SR cells assessed as cell growth at 10 uM incubated for 48 hrs by sulforhodamine B assay relative to control
[31] = test system: U-251; assay: Growth inhibition of human U-251 cells assessed as cell growth at 10 uM incubated for 48 hrs by sulforhodamine B assay relative to control
[32] = test system: DU-145; assay: Growth inhibition of human DU-145 cells assessed as cell growth at 10 uM incubated for 48 hrs by sulforhodamine B assay relative to control
[33] = test system: OVCAR-5; assay: Growth inhibition of human OVCAR-5 cells assessed as cell growth at 10 uM incubated for 48 hrs by sulforhodamine B assay relative to control
[34] = test system: KM12; assay: Growth inhibition of human KM12 cells assessed as cell growth at 10 uM incubated for 48 hrs by sulforhodamine B assay relative to control
[35] = test system: 786-0; assay: Growth inhibition of human 786-0 cells assessed as cell growth at 10 uM incubated for 48 hrs by sulforhodamine B assay relative to control
[36] = test system: EKVX; assay: Growth inhibition of human EKVX cells assessed as cell growth at 10 uM incubated for 48 hrs by sulforhodamine B assay relative to control
[37] = test system: SNB-19; assay: Growth inhibition of human SNB-19 cells assessed as cell growth at 10 uM incubated for 48 hrs by sulforhodamine B assay relative to control
[38] = test system: CAKI-1; assay: Growth inhibition of human CAKI-1 cells assessed as cell growth at 10 uM incubated for 48 hrs by sulforhodamine B assay relative to control
[39] = test system: RPMI-8226; assay: Growth inhibition of human RPMI-8226 cells assessed as cell growth at 10 uM incubated for 48 hrs by sulforhodamine B assay relative to control
[40] = test system: SNB-75; assay: Growth inhibition of human SNB-75 cells assessed as cell growth at 10 uM incubated for 48 hrs by sulforhodamine B assay relative to control

| Compound | growth at 10 µM [1] [%] | growth at 10 µM [2] [%] | growth at 10 µM [3] [%] | growth at 10 µM [4] [%] | growth at 10 µM [5] [%] | growth at 10 µM [6] [%] | growth at 10 µM [7] [%] | growth at 10 µM [8] [%] | growth at 10 µM [9] [%] | growth at 10 µM [10] [%] | growth at 10 µM [11] [%] | growth at 10 µM [12] [%] | growth at 10 µM [13] [%] | growth at 10 µM [14] [%] | growth at 10 µM [15] [%] | growth at 10 µM [16] [%] | growth at 10 µM [17] [%] | growth at 10 µM [18] [%] | growth at 10 µM [19] [%] | growth at 10 µM [20] [%] | other results |
| --- | --- | --- | --- | --- | --- | --- | --- | --- | --- | --- | --- | --- | --- | --- | --- | --- | --- | --- | --- | --- | --- |
| CC(=O)Nc1cc(CO)cc(NC(=O)c2ccc(NC(=O)CCCN3CCOCC3)cc2)c1 | 95.6 | 103 | 101 | 130 | 100 | 87 | 86.6 | 107 | 110 | 102 | 99.8 | 98.3 | 93.1 | 93.4 | 98.3 | 110 | 104 | 106 | 99.5 | 98.7 | growth at 10 µM [21]: 106%; growth at 10 µM [22]: 109%; growth at 10 µM [23]: 100%; growth at 10 µM [24]: 101%; growth at 10 µM [25]: 103%; growth at 10 µM [26]: 96.7%; growth at 10 µM [27]: 106%; growth at 10 µM [28]: 97.6%; growth at 10 µM [29]: 104%; growth at 10 µM [30]: 108%; growth at 10 µM [31]: 105%; growth at 10 µM [32]: 115%; growth at 10 µM [33]: 106%; growth at 10 µM [34]: 109%; growth at 10 µM [35]: 97%; growth at 10 µM [36]: 103%; growth at 10 µM [37]: 99.4%; growth at 10 µM [38]: 110%; growth at 10 µM [39]: 93.6%; growth at 10 µM [40]: 92.5% |
| CC(=O)Nc1cc(CCl)cc(NC(=O)c2ccc(C(=O)Nc3cccc(NC(=O)CCCN(C)C)c3)cc2)c1 | 93 | 93 | 106 | 100 | 93 | 114 | 98 | 108 | 110 | 99 | 106 | 93 | 106 | 104 | 101 | 101 | 104 | 101 | 102 | 95 | growth at 10 µM [21]: 100%; growth at 10 µM [22]: 99%; growth at 10 µM [23]: 100%; growth at 10 µM [24]: 116%; growth at 10 µM [25]: 104%; growth at 10 µM [26]: 113%; growth at 10 µM [27]: 100%; growth at 10 µM [28]: 100%; growth at 10 µM [29]: 104%; growth at 10 µM [30]: 125%; growth at 10 µM [31]: 100%; growth at 10 µM [32]: 106%; growth at 10 µM [33]: 92%; growth at 10 µM [34]: 104%; growth at 10 µM [35]: 107%; growth at 10 µM [36]: 86%; growth at 10 µM [37]: 106%; growth at 10 µM [38]: 104%; growth at 10 µM [39]: 116%; growth at 10 µM [40]: 82% |
